Test results taken from paper PMC2855520, “Anti-infective activity of apolipoprotein domain derived peptides in vitro: identification of novel antimicrobial peptides related to apolipoprotein B with anti-HIV activity” (BMC Immunology, 2010).
Where two headings read alike, the source gives them in different places. No end group written: not given here.

Legend:
[1] = test system: Staphylococcus aureus (ATCC 6538P)
Method: (§1) A microdilution method was used [8]: paired dilutions of compounds in LB broth, arranged in 96-well plates were inoculated with around 1 × 10^5 CFU Pseudomonas aeruginosa (ATCC 9027) or Staphylococcus aureus (ATCC 6538P). After overnight incubation at 37C, absorbance at 620 nm (A620) was assessed, and the IC50 concentrations determined.

HSV1 [2] = test system: HSV1
[3] = test system: Pseudomonas aeruginosa (ATCC 9027)
Method: as §1

human red blood cells [4] = test system: human red blood cells; design: method as in PMID 17681018; conditions: cited from earlier work
TZMbl cells = type: cell-based
Method: Cytotoxicity assessment - Vero cells growing in 96-well plates were treated with various peptide concentrations. After 48 h incubation, 25 μl 3-(4,5-dimethylthiazol-2-yl)-2,5-diphenyltetrazolium bromide (MTT) in 0.5% medium was added (1 mg/ml final concentration), and cells incubated for 2 h. Growth medium was then carefully removed and formazan crystals solubilised in […] of DMSO, prior to reading absorbance at 570 nm (A570). TZMbl cytotoxicity was assessed using the WST-1 cell proliferation reagent (Roche). Experiments were performed as for the anti-infectivity assay, WST-1 was diluted 1/10 into each well at various time points and cell proliferation was measured by absorbance at 450 nm.

human red blood cells [5] = type: cell-based
Method: Freshly washed human red blood cells were added to peptides diluted in PBS in 96-well plates (20 × 10^6 red blood cells were added per well). After 2 h incubation at 37°C, plates were centrifuged (3000 g, 5 min) and 80 μl of supernatant transferred to further 96-well plates containing 0.75% ammonium hydroxide in distilled water.

HSV1 [6] = conditions: earlier reports, organism not specified at this place; ref [9]; cited from earlier work
Excerpt: In the second group of peptides, apoEdp - used as a positive control - was active against all three organisms, as found in our previous studies.

[7] = read-out: IC50 Concentration (μM) S. aureus, turbidity (A620) of serial dilutions in LB broth, ~1 × 10^5 CFU, overnight 37C, averages for several experiments
[8] = read-out: IC50 Concentration (μM) P. aeruginosa, turbidity (A620) of serial dilutions in LB broth, ~1 × 10^5 CFU, overnight 37C, averages for several experiments
[9] = read-out: IC50 Concentration (μM) HSV1, plaque reduction assay, Vero cells, 90 PFU/well, peptide present 1 h, plaques counted after 2 d, averages for several experiments

Substance	IC50 [1, 7]	IC50 (HSV1 [2]; 1 h)	IC50 [3, 8]	IC50 (HSV1 [2]; [9])	also measured
RDADDLQKRRDADDLQKR [apoE(150-158)dp]	> 54 µM	> 40 µM	> 54 µM	–	–
RLTRKRGLKRLTRKRGLK [apoB(3359-3367)dp]	> 54 µM	> 40 µM	> 54 µM	–	–
VTDYGKDLMEKVKSPELQ [apoAII 18-35]	> 54 µM	–	> 54 µM	> 40 µM	–
HMLDVMQDHFSRASSIIDEL [apoJ151-170]	> 54 µM	> 40 µM	> 54 µM	–	–
RLRARMEEMRLRARMEEM [apoE(213-221)dp]	> 54 µM	> 40 µM	> 54 µM	–	–
KFMETVAEKALQEYRK [apoJ409-424]	> 54 µM	–	> 54 µM	> 40 µM	–
PVLDEFREKLNEELEALKQKMK [apoA1-consensus]	> 54 µM	–	> 54 µM	> 40 µM	–
LRKLRKRLLLRKLRKRLL-NH2 [apoE(141-149)dp, reference compound]	–	16.5 µM	–	–	IC50 ([1]; ATCC 6538): 9 µM; haemolytic activity (human red blood cells [4]): non-haemolytic; IC50 ([3]; ATCC 9027): 2.5 µM
LQVAERLTRKYNELLKSYQ [apoJ311-329]	> 54 µM	–	> 54 µM	> 40 µM	–
DWLKAFYDKVAEKLKEAF [apoA1-18A, reference compound]	–	–	–	–	IC50 (HSV1 [2]; read-out: IC50 concentration against HSV1, plaque reduction assay, 95%CI 31.9 - 41.1 μM): 36.5 µM
PYSDELRQRLAARLEALKENGG [apoA1-H7]	> 54 µM	–	> 54 µM	> 40 µM	–
PLGEEMRDRARAHVDALRTHLA [apoA1-H6]	> 54 µM	–	> 54 µM	> 40 µM	–
PYLDDFQKKWQEEMELYRQKVE [apoA1-H4]	> 54 µM	–	> 54 µM	> 40 µM	–
WRWRKRWRKWRWRKRWRK [apoBdpL/R-W]	–	–	–	–	toxicity against TZMbl cells (TZMbl cells): no detectable toxicity; haemolytic activity (human red blood cells [5]): non-haemolytic
VTDYGKDLMEKVKEWLNS [apoAII 18-30+]	> 54 µM	–	> 54 µM	> 40 µM	–
NFHAMFQPFLEMIHEAQQ [apoJ219-236]	> 54 µM	–	> 54 µM	> 40 µM	–
LRKLRKRLLRDADDLQKRLA [apoE141-162]	> 54 µM	> 40 µM	> 54 µM	–	–
GERLRARMEGERLRARME [apoE(211-219)dp]	> 54 µM	> 40 µM	> 54 µM	–	–
apoE(141-149): nonomer peptide of the apoE receptor binding region (LRKLRKRLL; UniProt P02649 159-167, looked up, fragment)	–	–	–	–	anti-infective activity (in words) (HSV1 [6]): inactive
ARLAEYHAKATEHLSTLSEKAK [apoA1-H8]	> 54 µM	–	> 54 µM	> 40 µM	–
CKNKEKKCCKNKEKKC [apoH(281-288)dp]	> 54 µM	–	> 54 µM	> 40 µM	–
RALVDTLKFVTQAEGAK [apoB1000-1016]	> 54 µM	–	> 54 µM	> 40 µM	antiviral activity against HSV1 (in words) (HSV1 [2]; plaque reduction assay in Vero cells): inactive
